Test results from patent US8071317B2, “Methods for detection of hydrophobic drugs” (Siemens Healthcare Diagnostics Inc., priority 2007, dated 2011).

System: anti-sirolimus antibody
Test: Sirolimus ACMIA immunoassay: metabolite cross-reactivity in whole blood
Assay type: binding
Excerpt: Testing was done using the DIMENSION® RxL analyzer, available from Dade Behring Inc., Newark Del. The instrument was employed using ACMIA immunoassay technology. The ACMIA assay method is disclosed in U.S. Pat. Nos. 7,186,518, 5,147,529, 5,128,103, 5,158,871, 4,661,408, 5,151,348, 5,302,532, 5,422,284, 5,447,870, 5,434,051, the disclosures of which are incorporated herein in their entirety). In the embodiment of the ACMIA method used herein and discussed in more detail below, competition between sirolimus analog on chrome particles and sirolimus (SIRO) in patient samples for antibody for sirolimus conjugated to an enzyme (conjugate) was utilized to determine the amount of sirolimus in the patient samples. Conjugate that binds to the sirolimus analog on chrome particles was removed by magnetic separation. The enzymatic activity from conjugate remaining in the supernatant is measured and is directly proportional to the amount of sirolimus in the patient sample. In the ACMIA assay format employed, the enzymatic activity observed when testing a sample containing no sirolimus was indicative of the amount of enzymatic activity that was not bound to active antibody (i.e., cannot bind sirolimus on chrome particles). The enzymatic activity observed when no chrome particle is present is indicative of the total amount of enzymatic activity in the conjugate. These values can be used to estimate the percent of enzymatic activity bound to active antibody.
Monoclonal anti-sirolimus antibody (Wyeth Pharmaceuticals, Cambridge Mass.) was conjugated to β-galactosidase using a standard heterobifunctional SMCC (succinimidyl trans-4-(N-maleimidylmethyl)cyclohexane-1-carboxylate) linker according to known techniques. The antibody conjugate solution contained approximately 7.5 μg/mL anti-sirolimus antibody-β-galactosidase conjugate, 30 mg/mL protease free bovine serum albumin, 0.126 mg/mL MgCl2, 0.03 mL/mL of Ethylene glycol, 35.14 mg/mL PIPES 1.5 sodium salt, 50 mg/mL NaCl and beta-gal mutein (inactivated beta-galactosidase), pH 6.5.
Sirolimus chrome particles (immunoassay solid phase) were prepared by conjugating sirolimus-C26- or -C32-CMO conjugate to DA10-Dexal-Chromium Dioxide particles using N-hydroxysuccinimide (NHS) ester and 1-ethyl-3-(3-dimethylaminopropyl)carbodiimide (EDAC) chemistry. See, for example, U.S. Pat. No. 6,231,982, the relevant disclosure of which is incorporated herein by reference. The sirolimus chrome particles are then made into sirolimus chrome particle tablets. Each sirolimus tablet contains approximately 2 mg sirolimus chrome particle slurry, 30.4 mg trehalose dihydrate and 3.6 mg CARBOWAX® 100 μm.
The principle and operation of the ACMIA assay for sirolimus were as follows: pretreatment reagent without FKE or with FKE containing organic solvent as the selective solubility agent was added to a reaction vessel on the DIMENSION® RxL analyzer. Next, 18 μL of whole blood containing sirolimus or its metabolites was added. The whole blood was sampled from a standard cup by first mixing the blood with the ultrasonic sample probe. The mixing of whole blood sample with the pretreatment solution ensured the hemolysis of the whole blood and the displacement of the protein bound sirolimus molecules from their binding sites when the tacrolimus carbamate molecules were present. Anti-sirolimus antibody-β-galactosidase conjugate (50 μL) was added next and was allowed to react with sirolimus in the sample. The chrome particles with immobilized sirolimus-CMO-DA10-Dexal were added (50 μL) and were allowed to bind the un-bound conjugate. […] The sirolimus-bound conjugate was detected by transferring the supernatant from the reaction vessel to a photometric cuvette and measuring the enzymatic rate of the conjugate in the presence of chlorophenol red-β-D-galactopyranoside (CPRG). The rate was measured bichromatically at 577 and 700 nm. […]

[1] = PT with 15 μg/mL FKE & 15% DMSO

Row | Compound | sirolimus metabolite cross-reactivity [1] [%] | sirolimus metabolite cross-reactivity (PT with 15 μg/mL FKE, no DMSO) [%] | sirolimus metabolite cross-reactivity (PT with Neither FKE Nor DMSO) [%] | % Cross-Reactivity (Control: no organic solvent in pretreatment reagent, recovery as percent of parent sirolimus) [%] | % Cross-Reactivity (DMSO 10% in pretreatment reagent, 2.3% in reaction mixture, 15 μg/mL FK506 ester) [%] | % Cross-Reactivity (DMSO 15% in pretreatment reagent, 3.4% in reaction mixture, 15 μg/mL FK506 ester) [%] | % Cross-Reactivity (Methoxypropanol 10% in pretreatment reagent, 2.3% in reaction mixture, 15 μg/mL FK506 ester) [%]
1 | 11-hydroxy sirolimus [11-hydroxy sirolimus (isomer of the above)] | 9 | 34 | 114 | – | – | – | –
2 | 41-O-demethyl sirolimus | 40 | 39 | 48 | – | – | – | –
3 | 11-hydroxy sirolimus | 35 | 78 | 315 | – | – | – | –
4 | 32-O-desmethyl sirolimus | −3 | 8 | 34 | – | – | – | –
5 | (N-oxide)-hydroxy sirolimus | 13 | 49 | 152 | – | – | – | –
6 | CO[C@@H]1C[C@H](C[C@@H](C)[C@@H]2CC(=O)[C@H](C)/C=C(\C)[C@@H](O)[C@@H](OC)C(=O)[C@H](C)C[C@H](C)/C=C/C=C/C=C(\C)[C@@H](O)C[C@@H]3CC[C@@H](C)[C@@](O)(O3)C(=O)C(=O)N3CCCC[C@H]3C(=O)O2)CC[C@H]1O [7-O-demethyl sirolimus] | −3 | 7 | 6 | – | – | – | –
7 | 27,39-O-didesmethyl (or 32,41-O-didesmethyl) sirolimus [27,39 Didesmethyl sirolimus] | 88 | 165 | 569 | 180 | 100 | 88 | 92
